Experimental data published in PMC6433648 (British Journal of Pharmacology, 2019).
pIC50, pKd, pKi: −log10 of the molar value. Each block holds one molecule with its values, some of them ahead of it.

Tests used:
rat Nluc‐A1AR [1] = target: T1, rat Nluc‐A1AR (Rattus norvegicus, UniProt P25099); assay: Fluorescent agonist saturation binding in presence/absence of allosteric modulator (NanoBRET); design: expressed in transfected cells; key to B max: Bmax expressed as BRET ratio from saturation fit; settings: Rat Nluc A1R
T1 sequence (P25099 2-326 limits assumed): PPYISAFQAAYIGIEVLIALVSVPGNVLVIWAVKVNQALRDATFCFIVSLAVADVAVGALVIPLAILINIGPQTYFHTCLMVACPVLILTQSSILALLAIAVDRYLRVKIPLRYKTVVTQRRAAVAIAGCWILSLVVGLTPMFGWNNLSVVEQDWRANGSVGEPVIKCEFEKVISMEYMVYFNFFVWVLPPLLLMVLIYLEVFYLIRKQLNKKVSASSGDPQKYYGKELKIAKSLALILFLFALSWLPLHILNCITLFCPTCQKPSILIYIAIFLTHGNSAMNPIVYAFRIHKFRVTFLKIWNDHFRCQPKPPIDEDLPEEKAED
Source text: (§1) Pooled fluorescent agonist saturation assays obtained in the presence and absence of a fixed concentration of allosteric modulator were simultaneously fitted to the following equation: BRET ratio=Bmax×B/B+KD+M×B+C.

human Nluc‐A1AR [2] = target: T2, human Nluc‐A1AR (Homo sapiens, UniProt P30542); assay: as above; design: expressed in transfected cells; key to B max: Bmax expressed as BRET ratio from saturation fit; settings: Human Nluc A1R
T2 sequence (P30542 2-326 limits assumed): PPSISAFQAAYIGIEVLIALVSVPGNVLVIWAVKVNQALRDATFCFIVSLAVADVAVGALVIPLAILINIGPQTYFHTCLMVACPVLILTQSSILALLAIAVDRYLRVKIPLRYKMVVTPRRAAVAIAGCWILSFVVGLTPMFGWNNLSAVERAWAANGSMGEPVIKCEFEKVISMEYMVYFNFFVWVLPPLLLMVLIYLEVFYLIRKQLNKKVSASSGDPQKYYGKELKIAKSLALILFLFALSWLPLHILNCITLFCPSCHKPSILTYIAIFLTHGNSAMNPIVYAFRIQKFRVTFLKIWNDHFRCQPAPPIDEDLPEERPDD
Source text: as §1

human Nluc‐A1AR [3] = target: T2, human Nluc‐A1AR; assay: NanoBRET competition binding: inhibition of specific binding of CA200645; design: expressed in transfected cells; settings: for concentrations producing a small direct inhibition of CA200645 binding: more evident at the human A1‐receptor; for pIC50: Nluc‐human A1AR, 25 nM CA200645, HEK293T cells; for Ki: read-out: pK i ± SEM (converted)
Source text: The IC50 values from competition‐binding curves were used to calculate the K i of the unlabelled ligands using the Cheng–Prusoff equation: Ki=IC50/1+L/KD, where [L] is the concentration of fluorescent ligand in nM, and K D is the dissociation constant of the fluorescent ligand in nM. The K D values used were obtained from the saturation‐binding experiments.

rat Nluc‐A1AR [4] = target: T1, rat Nluc‐A1AR; assay: as above
Procedure: (§2) The fluorescent antagonist saturation, competition‐binding, allosteric modulator binding cooperativity, and the fluorescent agonist saturations in the presence/absence of allosteric modulator assays were performed on the stably transfected HEK293T cells expressing human or rat Nluc‐A1R. The cells were seeded 24 hr before experimentation in white walled, poly‐D‐lysine coated 96‐well microplates (Thermo Scientific, Loughborough, UK) at a density of 25,000 cells per well.
(§3) For each experiment, ligands were added simultaneously, and the 96‐well plate was incubated for 1 hr at 37°C (no CO2). Following this, the Nluc substrate furimazine (Promega) was added to give a final concentration of 10 μM and then incubated for 5 min at 37°C. For all experiments, the luminescence and resulting BRET were measured using the PHERAstar FS plate reader (BMG Labtech) using filtered light emissions at 460 nm (80 nm bandpass) and >610 nm (longpass) at room temperature. The raw BRET ratio was calculated by dividing the >610 nm emission by the 460 nm emission.

human A1‐receptors = test system: human A1‐receptors; design: method as in May et al., 2010; settings: PD 81,723 10 μM, CHO cells; ref May et al., 2010; cited from earlier work
human Nluc‐A1AR [5] = target: T2, human Nluc‐A1AR; assay: cell-based
Procedure: as §2, §3

rat Nluc‐A1AR [6] = target: T1, rat Nluc‐A1AR; assay: cell-based; settings: agonist pIC50, Rat, 25 nM CA200645
Procedure: as §2, §3

[7] = VCP171 0 (control), maximal specific binding (BRET ratio fit)

B max (rat Nluc‐A1AR [1]; PD 81,723 0 (control)): 0.015 ± 0.002
pKd (rat Nluc‐A1AR [1]; PD 81,723 0 (control)): 5.74
pKd (rat Nluc‐A1AR [1]; VCP171 0 (control)): 6.05
B max (rat Nluc‐A1AR [1]; [7]): 0.010 ± 0.001
B max (rat Nluc‐A1AR [1]; with 10 μM PD 81,723): 0.018 ± 0.002
B max (rat Nluc‐A1AR [1]; with 10 μM VCP171): 0.021 ± 0.002
B max (rat Nluc‐A1AR [1]; with 30 μM PD 81,723): 0.032 ± 0.01
B max (rat Nluc‐A1AR [1]; with 30 μM VCP171): 0.026 ± 0.003
B max (human Nluc‐A1AR [2]; PD 81,723 0 (control)): 0.007 ± 0.001
pKd (human Nluc‐A1AR [2]; PD 81,723 0 (control)): 6.01
pKd (human Nluc‐A1AR [2]; VCP171 0 (control)): 5.99
B max (human Nluc‐A1AR [2]; [7]): 0.006 ± 0.001
B max (human Nluc‐A1AR [2]; with 10 μM PD 81,723): 0.012 ± 0.003
B max (human Nluc‐A1AR [2]; with 10 μM VCP171): 0.013 ± 0.002
B max (human Nluc‐A1AR [2]; with 30 μM PD 81,723): 0.016 ± 0.004
B max (human Nluc‐A1AR [2]; with 30 μM VCP171): 0.016 ± 0.002
SMILES: CCNC(=O)[C@H]1O[C@@H](n2cnc3c(NCCCCNC(=O)CCCCCNC(=O)COc4ccc(/C=C/C5=[N+]6C(=Cc7ccc(-c8cccs8)n7[B-]6(F)F)C=C5)cc4)ncnc32)[C@H](O)[C@@H]1O [ABEA‐X‐BY630]

concentrations producing a small direct inhibition of CA200645 binding (human Nluc‐A1AR [3]): > 100 µM
pIC50 (rat Nluc‐A1AR [4]): < 4.00
SMILES: Cc1sc(N)c(C(=O)c2cccc(C(F)(F)F)c2)c1C [PD 81,723, (2‐amino‐4,5‐dimethylthiophen‐3‐yl)(3‐(trifluoromethyl)phenyl)methanone]
effect on dissociation of BY630‐ABA (human A1‐receptors): slow the dissociation

pIC50 (human Nluc‐A1AR [3]): 4.39
concentrations producing a small direct inhibition of CA200645 binding (human Nluc‐A1AR [3]): 10 to 100 µM
Ki (human Nluc‐A1AR [3]): 23400 nM
pIC50 (rat Nluc‐A1AR [4]): 3.89
pKi (rat Nluc‐A1AR [4]): 4.15
SMILES: Nc1scc(-c2cccc(C(F)(F)F)c2)c1C(=O)c1ccccc1 [VCP171, (2‐amino‐4‐(3‐(trifluoromethyl)phenyl)thiophen‐3‐yl)(phenyl)methanone]

B max (rat Nluc‐A1AR [1]; PD 81,723 0 (control)): 0.031 ± 0.002
pKd (rat Nluc‐A1AR [1]; PD 81,723 0 (control)): 6.02
pKd (rat Nluc‐A1AR [1]; VCP171 0 (control)): 6.05
B max (rat Nluc‐A1AR [1]; [7]): 0.031 ± 0.014
B max (rat Nluc‐A1AR [1]; with 10 μM PD 81,723): 0.040 ± 0.005
B max (rat Nluc‐A1AR [1]; with 10 μM VCP171): 0.048 ± 0.009
B max (rat Nluc‐A1AR [1]; with 30 μM PD 81,723): 0.054 ± 0.007
B max (rat Nluc‐A1AR [1]; with 30 μM VCP171): 0.072 ± 0.021
B max (human Nluc‐A1AR [2]; PD 81,723 0 (control)): 0.019 ± 0.002
pKd (human Nluc‐A1AR [2]; VCP171 0 (control)): 6.23
B max (human Nluc‐A1AR [2]; [7]): 0.019 ± 0.002
B max (human Nluc‐A1AR [2]; with 10 μM PD 81,723): 0.035 ± 0.005
B max (human Nluc‐A1AR [2]; with 10 μM VCP171): 0.033 ± 0.004
B max (human Nluc‐A1AR [2]; with 30 μM PD 81,723): 0.035 ± 0.008
B max (human Nluc‐A1AR [2]; with 30 μM VCP171): 0.036 ± 0.003
SMILES: O=C(CCCCCNC(=O)COc1ccc(/C=C/C2=[N+]3C(=Cc4ccc(-c5cccs5)n4[B-]3(F)F)C=C2)cc1)NCCCCNc1ncnc2c1ncn2[C@@H]1O[C@H](CO)[C@@H](O)[C@H]1O [ABA‐X‐BY630]

pIC50 (human Nluc‐A1AR [3]): 6.61
Ki (human Nluc‐A1AR [3]): 141 nM
pIC50 (human Nluc‐A1AR [5]): 6.55
pIC50 (rat Nluc‐A1AR [6]; PD 81,723 0 (control)): 6.56
pIC50 (rat Nluc‐A1AR [6]; VCP171 0 (control)): 6.60
pIC50 (rat Nluc‐A1AR [4]): 6.73
pKi (rat Nluc‐A1AR [4]): 6.99
SMILES: N#Cc1c(N)nc(SCc2csc(-c3ccc(Cl)cc3)n2)c(C#N)c1-c1ccc(OCCO)cc1 [Capadenoson, 2‐amino‐6‐[[2‐(4‐chlorophenyl)‐1,3‐thiazol‐4‐yl]methylsulfanyl]‐4‐[4‐(2‐hydroxyethoxy)phenyl]pyridine‐3,5‐dicarbonitrile]

pIC50 (rat Nluc‐A1AR [4]): 5.71
pKi (rat Nluc‐A1AR [4]): 5.97
SMILES: O=C(Cc1ccccc1)Nc1nc2ccc(Cl)cc2c2nc(-c3ccco3)nn12 [MRS1220, N‐[9‐chloro‐2‐(furan‐2‐yl)‐[1,2,4]triazolo[1,5‐c]quinazolin‐5‐yl]‐2‐phenylacetamide]

pIC50 (rat Nluc‐A1AR [4]): 4.76
pKi (rat Nluc‐A1AR [4]): 5.02
SMILES: Nc1sc(-c2ccc(C(=O)NCCCCCCNc3ncnc4c3ncn4[C@@H]3O[C@H](CO)[C@@H](O)[C@H]3O)cc2)c(-c2cccc(C(F)(F)F)c2)c1C(=O)c1ccccc1 [VCP746, 4‐(5‐amino‐4‐benzoyl‐3‐(3‐(trifluoromethyl)phenyl)thiophen‐2‐yl)‐N‐(6‐(9‐((2R,3R,4S,5R)‐3,4‐dihydroxy‐5‐(hydroxylmethyl)tetrahydro‐furan‐2‐yl)‐9H‐purin‐6‐ylamino)hexyl)benzamide]
